Literature values, collected in patent US20260102333A1, “TOPICAL DELIVERY OF ANTIFUNGAL AGENTS FOR TREATING FUNGAL INFECTIONS” (LYOTROPIC DELIVERY SYSTEMS LTD., priority 2022, published 2026).
Where a name gives a salt, the structure may show the parent alone.

Experiments:
[1] = tested on: Trichophyton mentagrophytes

For CN(C/C=C/C#CC(C)(C)C)Cc1cccc2ccccc12 [TRB, terbinafine hydrochloride], the “MIC50 (minimum inhibitory concentration required for 50% inhibition)” value [1] is given as 0.03 to 0.5 µg/mL and the “MIC50 (minimum inhibitory concentration required for 50% inhibition)” value (Trichophyton rubrum) is given as 0.03 to 0.5 µg/mL.
